Data taken from patent US9180111B2, “Reduction in complement activation and inflammation during tissue injury by carotenoids, carotenoid analogs, or derivatives thereof” (Cardax Pharma, Inc., priority 2005, dated 2015).

Experiments:
[1] = Determination of aqueous solubility/dispersibility; assay type: physicochemical
Protocol: (§1) 30.13 mg of 3 was added to 1 mL of USP-purified water. The sample was rotated for 2 hours, then centrifuged for 5 minutes. After centrifuging, solid was visible in the bottom of the tube. A 125-μL aliquot of the solution was then diluted to 25 mL. The sample was analyzed by UV/Vis spectroscopy at 436 nm, and the absorbance was compared to a standard curve compiled from 4 standards of known concentration. The concentration of the original supernatant was calculated to be 2.85 mg/mL and the absorptivity was 36.94 AU*mL/cm*mg. Slight error may have been introduced by the small size of the original aliquot.
as §1, with “Next, 30.80” for “30.13”, “9” for “3”, “411” for “436”, “29.27” for “2.85”, “2.90” for “36.94”

[2] = target: human serum albumin (HSA) (Homo sapiens, UniProt P02768); assay: Plasma-protein binding studies in vitro
Sequence of human serum albumin (HSA) (P02768 25-609): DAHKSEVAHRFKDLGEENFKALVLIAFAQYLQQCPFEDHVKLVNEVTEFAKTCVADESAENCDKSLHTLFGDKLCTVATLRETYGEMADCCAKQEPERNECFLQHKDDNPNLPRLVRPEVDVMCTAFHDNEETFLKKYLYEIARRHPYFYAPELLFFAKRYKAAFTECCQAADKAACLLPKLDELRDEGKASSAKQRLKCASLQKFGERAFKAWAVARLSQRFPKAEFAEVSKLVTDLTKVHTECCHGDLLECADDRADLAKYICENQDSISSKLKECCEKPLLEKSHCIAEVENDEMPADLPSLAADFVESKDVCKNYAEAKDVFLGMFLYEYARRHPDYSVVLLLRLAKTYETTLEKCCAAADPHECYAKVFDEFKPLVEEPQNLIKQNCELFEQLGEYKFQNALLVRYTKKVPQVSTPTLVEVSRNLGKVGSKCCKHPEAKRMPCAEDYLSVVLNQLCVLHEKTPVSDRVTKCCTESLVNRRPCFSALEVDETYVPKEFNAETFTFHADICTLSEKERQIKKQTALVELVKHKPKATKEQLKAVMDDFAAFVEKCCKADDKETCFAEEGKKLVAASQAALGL

solubility in water [1] | Structure (SMILES) | binding to human serum albumin [2]
insoluble in water | CC1=C(/C=C/C(C)=C/C=C/C(C)=C/C=C/C=C(C)/C=C/C=C(C)/C=C/C2=C(C)C(=O)[C@@H](O)CC2(C)C)C(C)(C)C[C@H](O)C1=O [astaxanthin, reference compound] | –
– | CC1=C(/C=C/C(C)=C/C=C/C(C)=C/C=C/C=C(C)/C=C/C=C(C)/C=C/C2=C(C)C(=O)C(OC(=O)CCC(=O)O)CC2(C)C)C(C)(C)CC(OC(=O)CCC(=O)O)C1=O [meso-(3R,3S)-disodium disuccinate astaxanthin derivative] | bound immediately and preferentially to human serum albumin
